Measurements from US8992890B2, “Absorbent dressings with painkilling activity” (Fidia Farmaceutici S.p.A., priority 2011, dated 2015).

Experiment: Release of diclofenac from the formulation, in vitro, Franz cell, rabbit plasma
Format: in vitro ADME
Experimental: The evaluation of the release kinetics of Diclofenac from the formulation was conducted with a Franz cell, comparing the release of the diclofenac contained in the formulation described in example 1 with an identically formulated composition containing diclofenac sodium (DCFNa) instead of diclofenac acid, at the same percentage.
The Franz cell is an instrument known to the skilled person; briefly, and very simply, it consists of two chambers, the lower one being called the receptor, while the upper one is called the donor. The two cells are separated by a porous membrane and connected to one another; the medium in which the diffusion of the active ingredient in question will be evaluated is loaded into the receptor chamber, and the product to be evaluated is loaded into the donor chamber. The medium flows against the separator membrane, and therefore comes into contact with the product loaded into the donor chamber; the active constituent spreads through the membrane to the receptor chamber, from which aliquots are sampled for testing to determine the extent of release of the active ingredient.
In this specific case, the receptor chamber was loaded with rabbit plasma (10.2 ml); approx. 73 mg of the formulation of Example 1 based on diclofenac acid (DCF/H+), accurately weighed, was placed in the donor chamber, distributed on a cellulose acetate membrane with a porosity (cut-off) of 0.2μ, wetted with rabbit plasma, and an area of 3.46 cm2. When the operating procedures of the Franz cell had been activated, 0.3 ml samples of rabbit serum were taken from the receptor chamber, which was topped up with fresh serum from time to time. The diclofenac is determined by spectrophotometric analysis, calibrating the instrument with rabbit plasma to take account of the effect of the medium on the release of the medicament.
The same procedure was followed to measure the release of diclofenac sodium (DCF/Na) formulated identically to the formulation of Example 1 in qualitative and quantitative terms.

| duration of release (formulation of Example 1) | drug released after approx. 8 hours (formulation of Example 1, approx. 8 hours) [%] | time within which the drug is exhausted (formulated identically to Example 1 (0.8%)) [h] | medicament released in the first 4 hours (formulated identically to Example 1 (0.8%), first 4 hours) | SMILES |
| --- | --- | --- | --- | --- |
| at least 48 hours | 60 |  |  | O=C(O)Cc1ccccc1Nc1c(Cl)cccc1Cl [diclofenac acid] |
|  |  | ≤ 24 | over 90% | O=C(O)Cc1ccccc1Nc1c(Cl)cccc1Cl [diclofenac sodium] |
